“And” between values parts separate entries of the source, which are not always exact repeats. Equal values may be shown once. Read-outs that look alike come from different tables or passages of the source.
Tests used:
[1] = cited from earlier work
[2] = Single oral dose, randomized, crossover PK-DDI study of voriconazole with clarithromycin; plasma voriconazole by RP HPLC UV-Vis, non-compartmental analysis; format: in vivo, human; details: for Cmaax of voriconazole, Mean & std. Deviation / Erate (elimination rate) of voriconazole, Mean & std. Deviation / tmax (time to reach Cmax) of voriconazole, Mean & std. Deviation: single oral dose; for concentration at 0.5 h / concentration at 1 h / concentration at 1.5 h / concentration at 2 h / concentration at 3 h / concentration at 4 h / concentration at 6 h / concentration at 8 h / concentration at 24 h: male, oral, Voriconazole plasma concentration
Description: The study designed was a single oral dose, open-labeled, randomized, crossover, and consisted of 02 weeks of washouts in between for evaluating drug-drug interaction in healthy volunteers.
A 2-week washout period was allocated from day 2 to day 15 to avoid the carry-over effect. […] All volunteers took the medication with a glass of water (250 mL). On days 1 and 16 (treatment days), two and 6 hours after drug administration, standard breakfast and lunch were served to all volunteers, respectively.
After taking blood samples, immediately these samples were centrifuged (at 500 rpm for 10–15 min) to separate plasma from blood (RBC) and stored at −80°C till analysis.
The plasma samples were subjected to protein precipitation and drug extraction with acetonitrile (ACN). A fixed volume of plasma (200 μL), ACN (200 μL), and internal standard (i.e., 2 μg/mL of fluconazole), taken into Eppendorf tubes were vortexed (for 5 min) and kept in the centrifuge at 10,000 RPM for 10–15 min for protein separation. Their supernatant (organic layer) layer was cautiously separated and analyzed by the already developed method. Chromatographic conditions of the HPLC-UV method comprised of isocratic mobile-phase ACN: H2O in 60:40 v/v proportions at a flow rate of 1.5 mL/min and UV detection at 254 nm. Then each sample was analyzed at least three times using the Flexar-series HPLC system, Norwalk, USA, by utilizing a C-18 Perkin-Elmer® column (with particulars of 150 mm length, 4.6 mm inner diameter, and 5 μm particle size). The total run time for each sample was ≤7.0 min.
The pharmacokinetic (PK) parameters used for PK-DDI assessment and plasma drug concentration vs. time profile were analyzed statistically through a non-compartmental approach.Pharmacokinetics PK-Summit® (version 2.0.2; Summit Research Services, Ashland, OH) software was used to evaluate all pharmacokinetic parameters. The various non-compartmental pharmacokinetic (PK) parameters calculated were peak plasma concentration (Cmax, µg/mL), time to reach Cmax (tmax, h), the elimination half-life (E-t1/2, h), an area under the curve from time zero to infinity (AUC^0-∞, μg×h/mL), and the area under the concentration-time curve from time zero to time-t (AUC^0-t, μg×h/mL), mean residence time (MRT, h), elimination rate (Erate, 1/h), apparent clearance (CL/Kg, L/h/Kg) and apparent volume of distribution (Vd, L/Kg).
Descriptive statistical tests were performed using SPSS software (version 21.0; IBM Crop; SPSS®; 2012); for a non-compartmental approach Pharmacokinetics PK-Summit® (version 2.0.2; Summit Research Services, Ashland, OH) software and MS-Excel used for results evaluation, and such data were presented graphically. […] The SPSS software (version 21.0; IBM Crop; SPSS®; 2012) procedure MIXED was used with treatment and visits as a fixed effect and subject as a random effect using the Residual maximum likelihood REML method. Sharpiro-Wilk test was used to check the normality of PK parameters. Log transformation was applied to those PK parameters (such as Cmax, MRT, apparent Vd, and E-t1/2) which were not normally distributed. […] These differences were evaluated by the ratios of geometric means between treatments and used a 90% CI for these ratios.

[3] = tested on: CYP3A4; set-up: method as in Mikus et al., 2006; details: read-out: Michaelis-Menten constant (Km) of voriconazole oxidase activity; CYP3A4 expressed in human CYP enzyme; ref Mikus et al., 2006; cited from earlier work
[4] = ref Geist et al., 2013; Hohmann et al., 2016; cited from earlier work
[5] = ref Geist et al., 2013; cited from earlier work
[6] = clinical; details: human, in vivo
Excerpt: After the second sequence of drug administration, follow-up data were collected for 2 weeks (from day 16 to day 30) from all volunteers regarding any side effects or toxicity-related issues. […] Blurring vision has been reported as a major side effect in the literature ([Theuretzbacher et al., 2006]). […] In the follow-up period, we carefully monitored the aspartate aminotransferase (AST) and alanine transaminase (ALT) biochemical test reports of that volunteer.

[7] = increased, exact percentage not reported, ref Bouatou et al. (2014)
[8] = ref Kakuda et al., (2013), Calcagno et al., (2014)
[9] = increased, exact percentage not reported, ref Motta et al. (2016)
[10] = increased, exact percentage not reported, ref Yasu et al. (2016)
[11] = increased, exact percentage not reported, ref Heinz et al. (2007)
[12] = Voriz (Alone): voriconazole 200 mg × 2 tablets, n = 12
[13] = Voriz + CLRM: voriconazole 200 mg × 2 tablets + clarithromycin 500 mg tablet, n = 12
[14] = human, plasma, 400 mg, Series 1: voriconazole 400 mg alone
[15] = human, plasma, Series 2: voriconazole 400 mg along with clarithromycin 500 mg
[16] = with clarithromycin versus alone, stated as decrease

## CC[C@H]1OC(=O)[C@H](C)[C@@H](O[C@H]2C[C@@](C)(OC)[C@@H](O)[C@H](C)O2)[C@H](C)[C@@H](O[C@@H]2O[C@H](C)C[C@H](N(C)C)[C@H]2O)[C@](C)(O)C[C@@H](C)CN(C)[C@H](C)[C@@H](O)[C@]1(C)O [Azithromycin]
[1]; ref Purkins et al. (2003d)
  ↑AUC of voriconazole (increase by effector drug): *↑8%
  ↑Cmax of voriconazole (increase by effector drug): *↑18%

## CN/C(=N/CCSCc1nc[nH]c1C)NC#N [Cimetidine]
[1]; ref Purkins et al. (2003b)
  ↑AUC of voriconazole (increase by effector drug): *↑22.5%
  ↑Cmax of voriconazole (increase by effector drug): *↑18.5%

## CC[C@H]1OC(=O)[C@H](C)[C@@H](O[C@H]2C[C@@](C)(OC)[C@@H](O)[C@H](C)O2)[C@H](C)[C@@H](O[C@@H]2O[C@H](C)C[C@H](N(C)C)[C@H]2O)[C@](C)(O)C[C@@H](C)C(=O)[C@H](C)[C@@H](O)[C@]1(C)O [Erythromycin]
[1]; ref Purkins et al. (2003d)
  ↑AUC of voriconazole (increase by effector drug): *↑1%
  ↑Cmax of voriconazole (increase by effector drug): *↑8%

## COc1ccc2nc([S@@+]([O-])Cc3ncc(C)c(OC)c3C)[nH]c2c1 [Esomeprazole]
[1]; [7]
  ↑AUC of voriconazole (increase by effector drug): ↑ ^NR*
  ↑Cmax of voriconazole (increase by effector drug): ↑ ^NR*

## Cc1cc(C#N)cc(C)c1Oc1nc(Nc2ccc(C#N)cc2)nc(N)c1Br [Etravirine]
[1]; [8]
  ↑AUC of voriconazole (increase by effector drug): *↑14%
  ↑Cmax of voriconazole (increase by effector drug): *↑23%

## O=C(CCCN1CCC(O)(c2ccc(Cl)cc2)CC1)c1ccc(F)cc1 [Haloperidol]
[1]; [9]
  ↑AUC of voriconazole (increase by effector drug): ↑ ^NR*
  ↑Cmax of voriconazole (increase by effector drug): ↑ ^NR*

## Cc1c(OCC(F)(F)F)ccnc1C[S+]([O-])c1nc2ccccc2[nH]1 (stereo not shown) [Lanoprazole]
[1]; [10]
  ↑AUC of voriconazole (increase by effector drug): ↑ ^NR*
  ↑Cmax of voriconazole (increase by effector drug): ↑ ^NR*

## COc1ccc2[nH]c([S+]([O-])Cc3ncc(C)c(OC)c3C)nc2c1 (stereo not shown) [Omeprazole]
[1]; ref Wood et al. (2003)
  ↑AUC of voriconazole (increase by effector drug): *↑41%
  ↑Cmax of voriconazole (increase by effector drug): *↑15%

## COc1ccnc(C[S+]([O-])c2nc3ccc(OC(F)F)cc3[nH]2)c1OC (stereo not shown) [Pantoprazole]
[1]; [11]
  ↑AUC of voriconazole (increase by effector drug): ↑ ^NR*
  ↑Cmax of voriconazole (increase by effector drug): ↑ ^NR*

## CNC(=C[N+](=O)[O-])NCCSCc1ccc(CN(C)C)o1 [Ranitidine]
[1]; ref Purkins et al. (2003b)
  ↑AUC of voriconazole (increase by effector drug): *↑4%
  ↑Cmax of voriconazole (increase by effector drug): *↑3.5%

## C[C@@H](c1ncncc1F)[C@](O)(Cn1cncn1)c1ccc(F)cc1F [voriconazole, (2R, 3S) -2-(2,4-difluorophenyl) -3-(5-fluora-4pyrimidinyl) -1-(1H −1,2,4-trizole-1-yl) -2-butanol]
[2]; Voriz (Alone): voriconazole 200 mg × 2 tablets, fasted healthy male volunteers n = 12
  Cmaax of voriconazole, Mean & std. Deviation: 2.52 ± 0.21 µg/mL
[2]; [12]
  Erate (elimination rate) of voriconazole, Mean & std. Deviation: 0.09 h⁻¹ and 0.09 ± 0.02 h⁻¹
  tmax (time to reach Cmax) of voriconazole, Mean & std. Deviation: 2.00 ± 0 h and 2 h
[2]; Voriz + CLRM vs Voriz (Alone)
  AUC0-t of voriconazole, % difference: 16%
  Apparent Vd/kg of voriconazole, % difference: −23%
  Cmaax of voriconazole, % difference: 52%
  MRT of voriconazole, % difference: −10%
  tmax of voriconazole, % difference: −25%
[2]; [13]
  Cmaax of voriconazole, Mean & std. Deviation: 3.84 ± 0.562 µg/mL
  Erate (elimination rate) of voriconazole, Mean & std. Deviation: 0.11 h⁻¹ and 0.11 ± 0.02 h⁻¹
  tmax (time to reach Cmax) of voriconazole, Mean & std. Deviation: 1.50 ± 0 h and 1.5 h
[2]; human, plasma, po, 400 mg
  AUC(0-inf): 9090 ± 790 ng·h/mL
  AUC(0-t): 8600 ± 720 ng·h/mL
  MRT: 6.16 ± 0.95 h
  half-life: 7.94 ± 0.53 h
[2]; [14]
  concentration at 0.5 h: 225 ng/mL
  concentration at 1 h: 1020 ng/mL
  concentration at 1.5 h: 1890 ng/mL
  concentration at 2 h: 2520 ng/mL
  concentration at 3 h: 1320 ng/mL
  concentration at 4 h: 781 ng/mL
  concentration at 6 h: 401 ng/mL
  concentration at 8 h: 170 ng/mL
  concentration at 24 h: 39.1 ng/mL
[2]; [15]
  concentration at 0.5 h: 378 ng/mL
  concentration at 1 h: 2040 ng/mL
  concentration at 1.5 h: 3840 ng/mL
  concentration at 2 h: 2500 ng/mL
  concentration at 3 h: 995 ng/mL
  concentration at 4 h: 661 ng/mL
  concentration at 6 h: 433 ng/mL
  concentration at 8 h: 224 ng/mL
  concentration at 24 h: 41.8 ng/mL
[2]; [16]
  decrease in tmax of voriconazole: 25%
  decrease of E-t1/2 of voriconazole: 26%
  decrease of MRT of voriconazole: 10%
  reduction (decrease) in the apparent volume of distribution (Vd) of voriconazole: 23%
[3]
  Km: 235 µM
[4]
  oral bioavailability (B.A): 96%
[5]
  protein binding: 58%
[6]
  Side effect: blurred vision: Blurred vision was observed in two volunteers
  Side effect: dizziness: One of our volunteers had felt dizziness
[6]; male
  Cmax: 5000 ng/mL
  Duration of blurred vision: 10 to 15 min

Reference: publication PMC10288581 (Frontiers in Pharmacology, 2023)
